The test system of assay [1] is HCT116 MTAP null cells. The experiment in a line: HCT116 MTAP null cell proliferation / viability (CellTiter-Glo, 6 days). The assay is classed as cell-based. As to conditions: HCT116-MTAP null, 144 h, HCT116 MTAP null cells, 6 days, CellTiter-Glo; read-out: HCT-116 MTAP null IC50. The protocol:
(§1) HCT116 MTAP null and WT cells were seeded in 96-well tissue culture plates in RPMI 1640 media+10% fetal bovine serum. Plates were incubated overnight at 37° C. and 5% CO2. Cells were then treated with an 8- or 9-point serial dilution of compound, using a top concentration of 1, or 10 μM, 1:3 serial dilution steps and, a DMSO-only control. Cells were incubated in the presence of drug for 6 days. Effects on cell viability were measured with the CellTiter-Glo® Luminescent Cell Viability Assay (Promega) per manufacturer's recommendation. Assay plates were read on an EnVision™ Multilabel Reader using the Ultra-Sensitive luminescence module. IC50 values were calculated with GraphPad Prism v 5.01 using symmetrical sigmoidal dose-response least squares fit with Hill slope fixed to −1 and top constrain to 100% or GeneData Screener using a 4-parameter logistic model to fit dose response curves.
(§2) Alternatively, compounds could be assayed with a 384 well plate format:
(§3) Compounds were pre-spotted into 384 well plates with a 22-point serial dilution of compound, using a top concentration of 10 or 50 μM, 1:2 serial dilution steps and, a DMSO-only control. HCT116 MTAP null and WT cells were then seeded as above and after 6 days effects on cell viability were measured with the CellTiter-Glo® Luminescent Cell Viability Assay (Promega). Assay plates were read as above and IC50 values were calculated with GeneData Screener using a 4-parameter logistic model to fit dose response curves. The reported IC50 represents the value where the curve transits 50% of control.

For assay [2], the system named is HCT116 WT cells. Briefly: HCT116 WT cell proliferation / viability (CellTiter-Glo, 6 days). The assay is classed as cell-based. The following applies: Homo sapiens, HCT-116, 144 h, HCT116 WT cells, 6 days, CellTiter-Glo; read-out: HCT-116 WT IC50. Here is the method: as §1, §2, §3

As to `COCC(C)N(Cc1ccc(C(F)(F)F)nn1)C(=O)c1cc2c3c(c(N)nc2cn1)COC3` (racemic) [Example 390, 4-amino-N-((2R)-1-methoxy-2-propanyl)-N-((6-(trifluoromethyl)-3-pyridazinyl)methyl)-1,3-dihydrofuro[3,4-c][1,7]naphthyridine-8-carboxamide and 4-amino-N-((2S)-1-methoxy-2-propanyl)-N-((6-(trifluoromethyl)-3-pyridazinyl)methyl)-1,3-dihydrofuro[3,4-c][1,7]naphthyridine-8-carboxamide], the half-maximal inhibitory concentration (IC50) in assay [1] came to 262 nM; in assay [2] it was 9900 nM.
For `CC1OCc2c1c(N)nc1cnc(C(=O)N(C)Cc3ccc(Br)cn3)cc21` (racemic) [Example 433, (3R)-4-amino-N-((5-bromo-2-pyridinyl)methyl)-N,3-dimethyl-1,3-dihydrofuro[3,4-c][1,7]naphthyridine-8-carboxamide and (3S)-4-amino-N-((5-bromo-2-pyridinyl)methyl)-N,3-dimethyl-1,3-dihydrofuro[3,4-c][1,7]naphthyridine-8-carboxamide] the same measures were 344 nM and 21200 nM.
For `N#Cc1ccc(CN(C(=O)c2ccc3nc(N)c4c(c3c2)COC4)C2CCCn3ncnc32)nc1` (racemic) [Example 448, 4-amino-N-((5-cyano-2-pyridinyl)methyl)-N-((8R)-5,6,7,8-tetrahydro[1,2,4]triazolo[1,5-a]pyridin-8-yl)-1,3-dihydrofuro[3,4-c]quinoline-8-carboxamide and 4-amino-N-((5-cyano-2-pyridinyl)methyl)-N-((8S)-5,6,7,8-tetrahydro[1,2,4]triazolo[1,5-a]pyridin-8-yl)-1,3-dihydrofuro[3,4-c]quinoline-8-carboxamide] the same measures were 124 nM and 2100 nM.
As for `CC(c1ncccn1)N(Cc1ccc(C2COC2)cc1)C(=O)c1ccc2nc(N)c3c(c2c1)COC3` (racemic) [Example 449, 4-amino-N-(4-(3-oxetanyl)benzyl)-N-((1R)-1-(2-pyrimidinyl)ethyl)-1,3-dihydrofuro[3,4-c]quinoline-8-carboxamide and 4-amino-N-(4-(3-oxetanyl)benzyl)-N-((1S)-1-(2-pyrimidinyl)ethyl)-1,3-dihydrofuro[3,4-c]quinoline-8-carboxamide], the IC50 in assay [1] was found to be 42 nM; in assay [2], 1230 nM.
Taken in the same sequence, the figures for `CO[C@@H]1COCC[C@H]1N(Cc1ccc(C(F)(F)F)cn1)C(=O)c1ccc2nc(N)c3c(c2c1)COC3` (racemic) [Example 459, 4-amino-N-((3R,4S)-3-methoxytetrahydro-2H-pyran-4-yl)-N-((5-(trifluoromethyl)-2-pyridinyl)methyl)-1,3-dihydrofuro[3,4-c]quinoline-8-carboxamide and 4-amino-N-((3S,4R)-3-methoxytetrahydro-2H-pyran-4-yl)-N-((5-(trifluoromethyl)-2-pyridinyl)methyl)-1,3-dihydrofuro[3,4-c]quinoline-8-carboxamide] were 29 nM and 305 nM.
For `CO[C@@H]1CCOC[C@H]1N(Cc1ccc(C(F)(F)F)cn1)C(=O)c1ccc2nc(N)c3c(c2c1)COC3` (racemic) [Example 460, 4-amino-N-((3R,4R)-4-methoxytetrahydro-2H-pyran-3-yl)-N-((5-(trifluoromethyl)-2-pyridinyl)methyl)-1,3-dihydrofuro[3,4-c]quinoline-8-carboxamide and 4-amino-N-((3S,4S)-4-methoxytetrahydro-2H-pyran-3-yl)-N-((5-(trifluoromethyl)-2-pyridinyl)methyl)-1,3-dihydrofuro[3,4-c]quinoline-8-carboxamide] the same measures were 19 nM and 287 nM.
Consider `CC(CF)N(Cc1ccc(C#N)cn1)C(=O)c1ccc2nc(N)c3c(c2c1)COC3` (racemic) [Example 473, 4-amino-N-((5-cyano-2-pyridinyl)methyl)-N-((2R)-1-fluoro-2-propanyl)-1,3-dihydrofuro[3,4-c]quinoline-8-carboxamide and 4-amino-N-((5-cyano-2-pyridinyl)methyl)-N-((2S)-1-fluoro-2-propanyl)-1,3-dihydrofuro[3,4-c]quinoline-8-carboxamide], for which the IC50 in assay [1] was 809 nM; in assay [2], above 10000 nM.
Taken in the same sequence, the figures for `COCC(C)N(Cc1ccc(C(F)(F)F)nn1)C(=O)c1cc2c3c(c(N)nc2cc1Cl)COC3` (racemic) [Example 487, 4-amino-7-chloro-N-((2R)-1-methoxy-2-propanyl)-N-((6-(trifluoromethyl)-3-pyridazinyl)methyl)-1,3-dihydrofuro[3,4-c]quinoline-8-carboxamide and 4-amino-7-chloro-N-((2S)-1-methoxy-2-propanyl)-N-((6-(trifluoromethyl)-3-pyridazinyl)methyl)-1,3-dihydrofuro[3,4-c]quinoline-8-carboxamide] were 88 nM and 1370 nM.
Taken in the same sequence, the figures for `COCC(C)N(Cc1ccc(C(F)(F)F)nn1)C(=O)c1cc2c3c(c(N)nc2cc1F)COC3` (racemic) [Example 488, 4-amino-7-fluoro-N-((2R)-1-methoxy-2-propanyl)-N-((6-(trifluoromethyl)-3-pyridazinyl)methyl)-1,3-dihydrofuro[3,4-c]quinoline-8-carboxamide and 4-amino-7-fluoro-N-((2S)-1-methoxy-2-propanyl)-N-((6-(trifluoromethyl)-3-pyridazinyl)methyl)-1,3-dihydrofuro[3,4-c]quinoline-8-carboxamide] were 49 nM and 696 nM.
As for `CC(c1ncccn1)N(Cc1ccc(C#N)cn1)C(=O)c1ccc2nc(N)c3c(c2c1)COC3` (racemic) [Example 616, 4-amino-N-((5-cyano-2-pyridinyl)methyl)-N-((1R)-1-(2-pyrimidinyl)ethyl)-1,3-dihydrofuro[3,4-c]quinoline-8-carboxamide and 4-amino-N-((5-cyano-2-pyridinyl)methyl)-N-((1S)-1-(2-pyrimidinyl)ethyl)-1,3-dihydrofuro[3,4-c]quinoline-8-carboxamide], the IC50 in assay [1] is 18 nM; in assay [2], 419 nM.
Taken in the same sequence, the figures for `CC(c1ncccn1)N(Cc1ccc(C(F)(F)F)cn1)C(=O)c1ccc2nc(N)c3c(cnn3C)c2c1` (racemic) [Example 618, 4-amino-3-methyl-N-((1R)-1-(2-pyrimidinyl)ethyl)-N-((5-(trifluoromethyl)-2-pyridinyl)methyl)-3H-pyrazolo[3,4-c]quinoline-8-carboxamide and 4-amino-3-methyl-N-((1S)-1-(2-pyrimidinyl)ethyl)-N-((5-(trifluoromethyl)-2-pyridinyl)methyl)-3H-pyrazolo[3,4-c]quinoline-8-carboxamide] were 33 nM and 264 nM.
For the compound `Cc1noc2c1c(N)nc1ccc(C(=O)N(Cc3ccc(C(F)(F)F)cn3)C(C)c3ncccn3)cc12` (racemic) [Example 619, 4-amino-3-methyl-N-((1R)-1-(2-pyrimidinyl)ethyl)-N-((5-(trifluoromethyl)-2-pyridinyl)methyl)[1,2]oxazolo[4,5-c]quinoline-8-carboxamide and 4-amino-3-methyl-N-((1S)-1-(2-pyrimidinyl)ethyl)-N-((5-(trifluoromethyl)-2-pyridinyl)methyl)[1,2]oxazolo[4,5-c]quinoline-8-carboxamide], the figures for the 50% inhibitory concentration (IC50) in assay [1] and in assay [2] were 61 nM and 1060 nM, respectively.
Taken in the same sequence, the figures for `COCC(C)N(Cc1ccc(C(F)(F)F)cn1)C(=O)c1ccc2nc(N)c3c(C)noc3c2c1` (racemic) [Example 634, 4-amino-N-((2R)-1-methoxy-2-propanyl)-3-methyl-N-((5-(trifluoromethyl)-2-pyridinyl)methyl)[1,2]oxazolo[4,5-c]quinoline-8-carboxamide and 4-amino-N-((2S)-1-methoxy-2-propanyl)-3-methyl-N-((5-(trifluoromethyl)-2-pyridinyl)methyl)[1,2]oxazolo[4,5-c]quinoline-8-carboxamide] were 34 nM and 953 nM.
For `COCC(C1CC1)N(Cc1ccc(Br)nn1)C(=O)c1ccc2nc(N)c3sccc3c2c1` (racemic) [Example 639, 4-amino-N-((6-bromo-3-pyridazinyl)methyl)-N-((1R)-1-cyclopropyl-2-methoxyethyl)thieno[2,3-c]quinoline-8-carboxamide and 4-amino-N-((6-bromo-3-pyridazinyl)methyl)-N-((1S)-1-cyclopropyl-2-methoxyethyl)thieno[2,3-c]quinoline-8-carboxamide] the same measures were 238 nM and 3150 nM.
Taken in the same sequence, the figures for `CC(c1ncccn1)N(Cc1ccc(C(F)(F)F)cn1)C(=O)c1ccc2nc(N)c3c(c2c1)COC3` (racemic) [Example 640, 4-amino-N-((1R)-1-(2-pyrimidinyl)ethyl)-N-((5-(trifluoromethyl)-2-pyridinyl)methyl)-1,3-dihydrofuro[3,4-c]quinoline-8-carboxamide and 4-amino-N-((1S)-1-(2-pyrimidinyl)ethyl)-N-((5-(trifluoromethyl)-2-pyridinyl)methyl)-1,3-dihydrofuro[3,4-c]quinoline-8-carboxamide] were 13 nM and 110 nM.

These data come from patent publication US20240101570A1 (AMGEN INC., priority 2020, published 2024).
